Laboratory results reported in ChEMBL document CHEMBL1156666, “Jerantinines A-G, cytotoxic Aspidosperma alkaloids from Tabernaemontana corymbosa” (J Nat Prod, 2008).

Key:
[1] = Cytotoxicity against vincristine sensitive human KB/S cells; type: functional, cell-based
[2] = Cytotoxicity against vincristine resistant human KB/VJ300 cells; type: functional, cell-based

Compound	IC50 [1]	IC50 [2]
CC[C@@]12CC(C(=O)OC)=C3Nc4cc(OC)c(O)cc4[C@@]34CCN(C[C@@H]3O[C@@H]31)[C@@H]24 [JERANTININE B]	1.11 µM	0.95 µM
CC[C@@]12CC(C(=O)OC)=C3Nc4cc(OC)c(OC)cc4[C@@]34CCN(C[C@@H]3O[C@@H]31)[C@@H]24 [10-O-METHYLJERANTININE B]	7.36 µM	10.7 µM
CC[C@]1(O)C[C@H]2CN(CCc3c([nH]c4ccccc34)[C@@](C(=O)OC)(c3cc4c(cc3OC)N(C=O)[C@H]3[C@@](O)(C(=O)OC)[C@H](OC(C)=O)[C@]5(CC)C=CCN6CC[C@]43[C@@H]65)C2)C1 [VINCRISTINE]	0.0054 µM	1.2 µM
CC[C@]12C=CCN3CC[C@]4(C(=C(C(=O)OC)C1)Nc1cc(OC)c(O)cc14)[C@@H]32 [JERANTININE A]	1.99 µM	1.73 µM
CC[C@]12C=CCN3CC[C@]4(C(=C(C(=O)OC)C1)Nc1cc(OC)c(OC(C)=O)cc14)[C@@H]32 [JERANTININE A ACETATE]	1.04 µM	0.83 µM
CC[C@]12C=CC(=O)N3CC[C@]4(C(=C(C(=O)OC)C1)Nc1cc(OC)c(O)cc14)[C@@H]32 [JERANTININE C]	0.81 µM	1.54 µM
COC(=O)C1=C2Nc3cc(OC)c(O)cc3[C@@]23CCN2CC[C@@H]4OCC[C@]4(C1)[C@H]23 [JERANTININE F]	12.8 µM	12.3 µM
CC[C@]12CCCN3CC[C@]4(C(=C(C(=O)OC)C1)Nc1cc(OC)c(O)cc14)[C@@H]32 [JERANTININE E]	2.55 µM	2.03 µM
CC[C@]12C=CCN3CC[C@]4(C(=C(C(=O)OC)C1)Nc1cc(OC)c(OC)cc14)[C@@H]32 [10-O-METHYLJERANTININE A]	12 µM	13.6 µM
CC[C@@]12CC(C(=O)OC)=C3Nc4cc(OC)c(O)cc4[C@@]34CCN(C(=O)[C@@H]3O[C@@H]31)[C@@H]24 [JERANTININE D]	0.68 µM	0.95 µM
CC[C@@]12CC(C(=O)OC)=C3Nc4cc(OC)c(OC(C)=O)cc4[C@@]34CCN(C[C@@H]3O[C@@H]31)[C@@H]24 [JERANTININE B ACETATE]	0.7 µM	0.75 µM
